US7994307B2, “RNAi modulation of the BCR-ABL fusion gene and uses thereof” (Alnylam Pharmaceuticals, Inc., priority 2004, dated 2011)
Entries after “also recorded” stand apart in the source; their conditions may differ. Where a name gives a salt, the structure may show the parent alone.

Assays:
32Dp210-H396P cells = assay: Sensitivity to imatinib mesylate of 32Dp210-H396P cells; type: cell-based, murine; settings: 32D cells expressing Bcr-Abl-H396P
32Dp210-T315I cells = assay: Sensitivity to imatinib mesylate of 32Dp210-T315I cells; type: cell-based, murine; settings: 32D cells expressing Bcr-Abl-T315I
K562 cells = settings: 48 h treatment with imatinib mesylate alone (Wilda et al.); cited from earlier work
p190Bcr-Abl (e1a2) = assay: Western blot of Bcr-Abl protein in 32Dp190/e1a2 cells; type: cell-based, murine; settings: 32Dp190Bcr-Abl (e1a2) cells, treated twice at intervals of 24 h
Protocol: (§1) FIGS. 2A-2B: ˜5 Mio 32Dp190/e1a2 cells have been electroporated twice at intervals of 24 h with the indicated siRNA. BAF22/BAF24: bcr-abl-e1a2-specific siRNAs; BAF9: bcr-abl-e14a2-specific siRNA, served as control; BAF19: bcr-abl-e13a2-specific siRNA, served as control; EPC: electroporation control. FIG. 2A: Western blot analysis of p190^Bcr-abl (e1a2) in 32Dp190/e1a2 cells about 24 h following second siRNA treatment; the level of GAPDH served as loading control. Lane 1: EPC, Lane 2: BAF9, Lane 3: BAF19, Lane 4: BAF22, Lane 5: BAF24. […] Values are means +/− SD of triplicates.
(§2) Protein assay: Western blot analysis was performed ˜24 h following the last siRNA -treatment or ˜96 hours following transfection with the pSUPER siRNA-expression vector as described (Goetz A W, et al., Cancer Res. 2001, 61:7635)
siRNA-transfection: siRNAs were transfected into the murine cell lines 32Dp210Bcr-Abl-e14a2, -e13a2, 32Dp190Bcr-Abl-e1a2 and the human leukemic cell line MEG-01 using electroporation. Cell density was adjusted to 2.5-5×10^6/ml in RPMI/10% FCS. 800 μl of this cell suspension were mixed with siRNA in a 4 mm electroporation cuvette. Cells were electroporated by means of an EasyJect electroporator (peqlab, Erlangen, Germany) using a single-pulse protocol (250 V, 1800 μF, 8.). This treatment was repeated in intervals of 24 hours as indicated. […]

32Dp190/e1a2 cells = assay: MTT viability assay in 32Dp190/e1a2 cells; type: cell-based, murine
Protocol: as §1
[…] Cell survival was then measured by MTT assay as described (Van der Kuip H, et al., Blood. 2001, 98:1532)
(§3) siRNA-transfection: siRNAs were transfected into the murine cell lines 32Dp210Bcr-Abl-e14a2, -e13a2, 32Dp190Bcr-Abl-e1a2 and the human leukemic cell line MEG-01 using electroporation. Cell density was adjusted to 2.5-5×10^6/ml in RPMI/10% FCS. 800 μl of this cell suspension were mixed with siRNA in a 4 mm electroporation cuvette. Cells were electroporated by means of an EasyJect electroporator (peqlab, Erlangen, Germany) using a single-pulse protocol (250 V, 1800 μF, 8.). This treatment was repeated in intervals of 24 hours as indicated.
In 32Dp210Bcr-Abl-e14a2, -e13a2 and 32Dp190Bcr-Abl-e1a2 inhibition of Bcr-Abl can be compensated by addition of exogenous growth factor to the medium. […]

p190Bcr-Abl = assay: Western blot of p190Bcr-Abl in SUP-B15 cells; type: cell-based, human; settings: 3 treatments at intervals of 24 hours, compared to EPC or BAF19 control
Protocol: FIG. 3: Cells from the human B cell precursor leukemia cell line SUP-B15 (ACC 389; DSMZ, Braunschweig, breakpoint variant e1a2) were treated as described for […] with an e1a2-specific siRNA (BAF22) or with siRNA directed to another breakpoint variant (BAF19, specific for e13a2) as a control.
as §3
SUP-B15 cells were treated by electroporation as described above with an e1a2-specific siRNA (BAF22) or with siRNA directed to another breakpoint variant (BAF19) as a control.

p210Bcr-Abl (e14a2) = assay: Western blot of Bcr-Abl protein in 32Dp210/e14a2 cells after siRNA electroporation; type: cell-based, murine; settings: 32Dp210Bcr-Abl (e14a2) cells
Protocol: as §2, §3
(§4) In 32Dp210Bcr-Abl-e14a2, -e13a2 and 32Dp190Bcr-Abl-e1a2 inhibition of Bcr-Abl can be compensated by addition of exogenous growth factor to the medium. Therefor, recombinant murine IL-3, (1 ng/ml) was added to the growth medium during siRNA treatment of these cell lines. Following the last siRNA treatment cells were washed and factor deprived before starting the different examination procedures (Western blot/MTT).
We used three murine hematopoetic 32D cell lines expressing either p210Bcr-Abl (e14a2), p210Bcr-Abl (e13a2) or p190Bcr-Abl (e1a2) to study the effectiveness of siRNAs to silence each of these human Bcr-Abl fusion breakpoint variants. In addition, experiments were performed in human Ph+leukemia cells (K562, MEG-01). All siRNAs used were directed to breakpoints of the Bcr and Abl sequence of the respective Bcr-Abl mRNA. RNAi-efficiency was assayed via analysis of Bcr-Abl protein levels and by monitoring the biological effect using MTT viability assay.

32Dp210/e14a2 cells [1] = assay: MTT viability assay in 32Dp210/e14a2 cells after siRNA electroporation; type: cell-based, murine; settings: treated four times, MTT
Protocol: (§5) Survival Assay: Following the last siRNA treatment cells were seeded in 96 well plates and cultivated for another ˜48 hours. Cell survival was then measured by MTT assay as described (Van der Kuip H, et al., Blood. 2001, 98:1532)
as §3, §4

32Dp210/e14a2 cells [2] = assay: Total cell number 48 h after last siRNA treatment, 32Dp210/e14a2 cells; type: cell-based, murine; settings: start 2.5 Mio cells
Protocol: as §3
In order to determine optimal conditions for RNA interference, we repeated the siRNA treatment one to four times at intervals of 24 hours. […] Despite its short duration, the effect was still sufficient to reduce the viability of cells to approximately 59% relative to control cells (EPC, 100%). […] The residual viability level of the cells treated four times with BAF7 measured in MTT assay was not more than ˜2.5% of the level of the control cells. Identical results were obtained when cell counts 48 hours following last treatment were used for assessment of the biological effect. Both mock-treated and cells treated with a mismatch siRNA still increased their cell number from 2.5 Mio cells to more than 25 Mio cells within 48 hours. […] The lower efficiency of BAF1 became even more obvious when the biological effect of BAF1 was assessed.

p210Bcr-Abl (e13a2) = assay: Western blot of Bcr-Abl protein in 32Dp210/e13a2 cells; type: cell-based, murine; settings: 32Dp210Bcr-Abl (e13a2) cells, repeated electroporation
Protocol: (§6) FIGS. 1A-1B: ˜2.5 Mio 32Dp210/e13a2 cells have been electroporated 1-3×at intervals of 24 h with the indicated siRNA. BAF3/BAF15/BAF17/BAF19: bcr-abl-e13a2-specific siRNAs; BAF9: bcr-abl-e14a2-specific siRNA, served as control; EPC: electroporation control. FIG. 1A: Western blot analysis of p210^Bcr-abl (e13a2) in 32Dp210/e13a2˜24 h following siRNA treatment; the level of GAPDH served as loading control. Lane 1: EPC, Lane 2: BAF9, Lane 3: BAF3, Lane 4: BAF15, Lane 5: BAF17, Lane 6: BAF19. […] Values are means +/− SD of triplicates.
as §2, §3, §4

32Dp210/e13a2 cells = assay: MTT viability assay in 32Dp210/e13a2 cells; type: cell-based, murine; settings: 32Dp210Bcr-Abl (e13a2) cells; for viability relative to controls (EPC): 48 h following 3rd treatment; for viability: repeated (up to three) treatments
Protocol: as §6, §5, §3, §4

Bcr-Abl-e13a2 = assay: Western blot of Bcr-Abl protein in MEG-01 cells; type: cell-based, human; settings: treated three times, compared to mismatch control BAF28
Protocol: as §2, §3
(§7) All three major Bcr-Abl oncogene variants -e14a2, -e13a2 and -e1a2 can be targeted by RNA interference. To identify effective siRNAs for inhibition of the second major Bcr-Abl fusion gene relevant in CML, Bcr-Abl-e13a2, we treated 32Dp210Bcr-Abl (e13a2) cells with four siRNAs (BAF3, BAF15, BAF17, BAF19) targeting different sequences of the Bcr-Able13a2 mRNA breakpoint. As a control we used a siRNA directed to the Bcr-Abl-e14a2 fusion sequence (BAF9). […] Despite the considerable overlap in their target sequence, BAF17 and BAF3 had no effect Bcr-Abl protein levels. […]

MEG-01 cells = assay: MTT viability assay in MEG-01 cells; type: cell-based, human; settings: treated three times
Protocol: as §5, §3, §7

Sequence of p210Bcr-Abl (e13a2) (P11274+P00519 fused): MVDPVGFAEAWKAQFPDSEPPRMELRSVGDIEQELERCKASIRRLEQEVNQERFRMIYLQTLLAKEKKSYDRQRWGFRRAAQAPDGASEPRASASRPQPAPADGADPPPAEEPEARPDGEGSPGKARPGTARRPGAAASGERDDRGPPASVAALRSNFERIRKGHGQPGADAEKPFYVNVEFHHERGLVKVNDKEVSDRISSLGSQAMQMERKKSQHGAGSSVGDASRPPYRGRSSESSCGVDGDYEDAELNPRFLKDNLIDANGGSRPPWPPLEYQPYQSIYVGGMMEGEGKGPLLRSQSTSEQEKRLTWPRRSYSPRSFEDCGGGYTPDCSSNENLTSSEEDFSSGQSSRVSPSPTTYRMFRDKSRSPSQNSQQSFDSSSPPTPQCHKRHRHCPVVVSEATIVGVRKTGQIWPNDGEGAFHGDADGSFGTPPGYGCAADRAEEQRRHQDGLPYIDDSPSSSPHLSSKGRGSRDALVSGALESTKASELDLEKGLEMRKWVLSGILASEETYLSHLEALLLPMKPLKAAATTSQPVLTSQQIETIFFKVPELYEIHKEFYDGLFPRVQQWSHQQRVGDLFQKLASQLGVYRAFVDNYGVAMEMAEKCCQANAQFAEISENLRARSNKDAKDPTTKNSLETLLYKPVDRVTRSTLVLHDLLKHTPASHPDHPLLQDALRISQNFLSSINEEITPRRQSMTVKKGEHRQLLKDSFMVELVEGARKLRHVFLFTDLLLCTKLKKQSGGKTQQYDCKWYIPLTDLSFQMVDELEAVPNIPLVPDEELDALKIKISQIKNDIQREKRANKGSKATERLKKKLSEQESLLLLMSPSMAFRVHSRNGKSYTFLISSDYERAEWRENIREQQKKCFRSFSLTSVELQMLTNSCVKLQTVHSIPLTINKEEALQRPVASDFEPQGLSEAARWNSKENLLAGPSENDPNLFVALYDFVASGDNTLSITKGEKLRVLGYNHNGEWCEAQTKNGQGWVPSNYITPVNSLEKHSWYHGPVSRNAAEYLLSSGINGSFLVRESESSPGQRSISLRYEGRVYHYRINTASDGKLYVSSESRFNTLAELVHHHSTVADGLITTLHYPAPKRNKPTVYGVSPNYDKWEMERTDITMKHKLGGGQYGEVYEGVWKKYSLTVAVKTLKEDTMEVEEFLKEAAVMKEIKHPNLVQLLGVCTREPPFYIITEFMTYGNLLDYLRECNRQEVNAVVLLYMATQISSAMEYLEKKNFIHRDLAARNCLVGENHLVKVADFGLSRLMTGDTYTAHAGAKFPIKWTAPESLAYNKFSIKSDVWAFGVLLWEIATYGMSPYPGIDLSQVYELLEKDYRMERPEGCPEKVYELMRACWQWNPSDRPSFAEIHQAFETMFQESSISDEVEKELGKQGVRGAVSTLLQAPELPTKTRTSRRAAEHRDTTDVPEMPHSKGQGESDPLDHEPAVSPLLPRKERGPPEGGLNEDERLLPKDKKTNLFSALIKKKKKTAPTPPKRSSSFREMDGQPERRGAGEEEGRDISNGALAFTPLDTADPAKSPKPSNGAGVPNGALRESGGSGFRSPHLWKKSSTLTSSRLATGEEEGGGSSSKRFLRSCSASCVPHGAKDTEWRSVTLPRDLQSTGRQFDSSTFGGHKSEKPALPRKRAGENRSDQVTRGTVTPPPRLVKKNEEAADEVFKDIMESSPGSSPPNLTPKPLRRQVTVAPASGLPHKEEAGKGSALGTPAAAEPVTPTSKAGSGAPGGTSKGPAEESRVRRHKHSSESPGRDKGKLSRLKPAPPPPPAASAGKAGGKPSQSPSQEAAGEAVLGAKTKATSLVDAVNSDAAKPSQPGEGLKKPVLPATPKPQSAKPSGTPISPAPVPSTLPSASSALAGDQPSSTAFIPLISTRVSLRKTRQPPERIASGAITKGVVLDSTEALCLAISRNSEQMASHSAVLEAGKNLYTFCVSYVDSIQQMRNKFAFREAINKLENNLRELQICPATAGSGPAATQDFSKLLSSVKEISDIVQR
Sequence of p210Bcr-Abl (e14a2) (P11274+P00519 fused): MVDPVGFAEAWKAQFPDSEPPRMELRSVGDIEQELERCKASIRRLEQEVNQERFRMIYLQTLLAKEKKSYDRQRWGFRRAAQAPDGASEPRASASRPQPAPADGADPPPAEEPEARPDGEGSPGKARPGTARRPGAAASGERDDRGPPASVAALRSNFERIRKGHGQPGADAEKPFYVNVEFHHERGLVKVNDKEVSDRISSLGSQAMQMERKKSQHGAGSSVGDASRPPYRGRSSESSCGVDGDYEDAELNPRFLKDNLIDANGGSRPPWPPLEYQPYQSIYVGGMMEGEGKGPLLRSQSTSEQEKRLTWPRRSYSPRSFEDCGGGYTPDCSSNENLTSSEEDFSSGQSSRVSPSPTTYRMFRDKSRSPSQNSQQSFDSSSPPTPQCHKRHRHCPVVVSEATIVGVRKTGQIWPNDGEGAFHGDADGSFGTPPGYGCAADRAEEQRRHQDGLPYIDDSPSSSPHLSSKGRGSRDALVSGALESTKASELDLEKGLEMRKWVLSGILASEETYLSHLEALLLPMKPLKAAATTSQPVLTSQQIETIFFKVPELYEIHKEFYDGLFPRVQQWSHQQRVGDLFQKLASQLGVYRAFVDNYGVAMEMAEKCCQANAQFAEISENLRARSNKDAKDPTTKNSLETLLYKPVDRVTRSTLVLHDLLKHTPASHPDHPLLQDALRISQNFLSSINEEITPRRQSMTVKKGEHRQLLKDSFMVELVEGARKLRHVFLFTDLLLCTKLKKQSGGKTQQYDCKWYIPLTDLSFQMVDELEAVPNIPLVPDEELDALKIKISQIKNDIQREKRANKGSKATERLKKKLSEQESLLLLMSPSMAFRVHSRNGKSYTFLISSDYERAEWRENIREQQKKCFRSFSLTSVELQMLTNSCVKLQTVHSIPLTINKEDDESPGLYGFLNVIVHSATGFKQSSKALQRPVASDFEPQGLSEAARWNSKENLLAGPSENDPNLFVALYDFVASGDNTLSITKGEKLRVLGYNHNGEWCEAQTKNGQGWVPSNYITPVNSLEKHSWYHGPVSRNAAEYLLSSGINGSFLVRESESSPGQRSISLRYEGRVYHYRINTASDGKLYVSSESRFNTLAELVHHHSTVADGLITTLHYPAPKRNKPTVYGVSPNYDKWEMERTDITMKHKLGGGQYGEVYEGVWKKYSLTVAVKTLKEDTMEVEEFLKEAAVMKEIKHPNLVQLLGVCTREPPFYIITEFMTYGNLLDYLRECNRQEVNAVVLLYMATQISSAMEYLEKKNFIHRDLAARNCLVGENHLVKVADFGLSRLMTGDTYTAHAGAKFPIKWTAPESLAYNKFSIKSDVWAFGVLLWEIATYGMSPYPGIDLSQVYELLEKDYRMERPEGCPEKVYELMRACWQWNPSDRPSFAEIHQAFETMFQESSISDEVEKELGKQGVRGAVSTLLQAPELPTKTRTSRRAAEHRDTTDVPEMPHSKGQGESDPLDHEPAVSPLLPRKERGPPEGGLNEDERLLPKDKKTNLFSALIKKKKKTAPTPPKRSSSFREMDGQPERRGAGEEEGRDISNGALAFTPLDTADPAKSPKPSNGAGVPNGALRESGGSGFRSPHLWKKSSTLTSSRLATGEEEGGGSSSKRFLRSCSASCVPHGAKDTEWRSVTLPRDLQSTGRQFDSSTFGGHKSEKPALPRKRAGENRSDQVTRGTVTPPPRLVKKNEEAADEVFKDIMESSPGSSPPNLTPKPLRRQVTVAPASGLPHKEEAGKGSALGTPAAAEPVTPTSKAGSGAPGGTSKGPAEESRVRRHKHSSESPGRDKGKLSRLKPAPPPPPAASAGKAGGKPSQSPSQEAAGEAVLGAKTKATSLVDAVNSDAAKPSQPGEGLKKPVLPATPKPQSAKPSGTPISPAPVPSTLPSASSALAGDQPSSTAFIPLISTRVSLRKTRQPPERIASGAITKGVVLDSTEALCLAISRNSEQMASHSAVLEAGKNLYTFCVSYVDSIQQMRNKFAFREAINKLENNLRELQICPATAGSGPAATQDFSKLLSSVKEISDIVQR

Cc1ccc(NC(=O)c2ccc(CN3CCN(C)CC3)cc2)cc1Nc1nccc(-c2cccnc2)n1 [imatinib mesylate, Imatinib mesylate]
loss of sensitivity to imatinib mesylate compared to 32Dp210-wt (32Dp210-H396P cells): ~4.7 fold
resistance to imatinib mesylate (32Dp210-T315I cells): complete resistance
cells undergoing apoptosis (K562 cells): 8%

BAF22: siRNA duplex, SEQ ID No. 19/28, specific for Bcr-Abl-e1a2 (chain 1 GGAGACGCAGAAGCCCUUCAG; chain 2 CUGAAGGGCUUCUGCGUCUCCAU; listed as RNA, chemistry not given here)
Bcr-Abl protein levels / Bcr-Abl-e1a2 gene expression (p190Bcr-Abl (e1a2)): actively silenced Bcr-Abl-e1a2 gene expression; also recorded: significant down-regulation
viability (32Dp190/e1a2 cells; 32Dp190/e1a2 cells, repeated treatment, ~40 h after second treatment): reduction of viability
viability compared to EPC (100%) (32Dp190/e1a2 cells; 32Dp190Bcr-Abl (e1a2) cells, after 2nd treatment): 15%
p190Bcr-Abl protein levels / Bcr-Abl-e1a2 expression (p190Bcr-Abl): effectively silenced Bcr-Abl-e1a2 expression; also recorded: significantly reduced

BAF24: siRNA duplex, SEQ ID No. 21/22, specific for Bcr-Abl-e1a2 (chain 1 GACGCAGAAGCCCUUCAGCGG; chain 2 CCGCUGAAGGGCUUCUGCGUCUC; listed as RNA, chemistry not given here)
Bcr-Abl protein levels / Bcr-Abl-e1a2 gene expression (p190Bcr-Abl (e1a2)): no effect at all

BAF1: siRNA duplex, SEQ ID No. 7/8, single mismatch compared to BAF7 (chain 1 CAGAGUUGAAAAGCCCUUCAG; chain 2 CUGAAGGGCUUUUCAACUCUGCU; listed as RNA, chemistry not given here) [reference compound]
down-regulation of Bcr-Abl protein levels compared to BAF7 (p210Bcr-Abl (e14a2)): less efficient down-regulation
viability relative to EPC (32Dp210/e14a2 cells [1]): 52%

BAF8: siRNA duplex, SEQ ID No. 3/4, Bcr-Abl-e14a2, mismatch control to BAF7 (three mismatches) (chain 1 CAGUGUUCAUAAGCCGUUCAG; chain 2 CUGAACGGCUUAUGAACACUGCU; chemistry not given here)
total cell number 48 h following last treatment (32Dp210/e14a2 cells [2]): more than 25 Mio cells

BAF19: siRNA duplex, SEQ ID No. 15/27, specific for Bcr-Abl-e13a2 (chain 1 AUCAAUAAGGAAGAAGCCCUU; chain 2 AAGGGCUUCUUCCUUAUUGAUGG; listed as RNA, chemistry not given here)
Bcr-Abl protein levels (p210Bcr-Abl (e13a2)): effective down-regulation
viability relative to controls (EPC) (32Dp210/e13a2 cells): ~14%
viability (32Dp210/e13a2 cells): almost complete loss of viability; also recorded: reduction of viability
Bcr-Abl protein levels / Bcr-Abl-e13a2 expression (Bcr-Abl-e13a2): effectively silenced Bcr-Abl-e13a2 expression; also recorded: significant loss of Bcr-Abl protein levels
viability compared to control cells (EPC, 100%) (MEG-01 cells): ~28%

BAF3: siRNA duplex, SEQ ID No. 9/10, specific for Bcr-Abl-e13a2 (chain 1 UAAGGAAGAAGCCCUUCAGCG; chain 2 CGCUGAAGGGCUUCUUCCUUAUU; listed as RNA, chemistry not given here)
Bcr-Abl protein levels (p210Bcr-Abl (e13a2)): completely ineffective; also recorded: no effect
viability (32Dp210/e13a2 cells): did also not interfere with the viability

BAF17: siRNA duplex, SEQ ID No. 13/26, specific for Bcr-Abl-e13a2 (chain 1 GGAAGAAGCCCUUCAGCGGCC; chain 2 GGCCGCUGAAGGGCUUCUUCCUU; listed as RNA, chemistry not given here)
Bcr-Abl protein levels (p210Bcr-Abl (e13a2)): no effect
viability (32Dp210/e13a2 cells): did also not interfere with the viability

BAF15: siRNA duplex, SEQ ID No. 11/25, specific for Bcr-Abl-e13a2 (chain 1 AAUAAGGAAGAAGCCCUUCAG; chain 2 CUGAAGGGCUUCUUCCUUAUUGA; listed as RNA, chemistry not given here)
Bcr-Abl protein levels (p210Bcr-Abl (e13a2)): effective down-regulation
viability relative to controls (EPC) (32Dp210/e13a2 cells): ~10%
viability (32Dp210/e13a2 cells): almost complete loss of viability; also recorded: reduction of viability
